In a melting point compilation (Tetko et al.; mined from patent text by program, amines drawn as free bases though some values may be those of a salt):

Compound CCOCc1nc2c(N)nc3cc(OCc4ccccc4)ccc3c2n1CC(C)C has a melting point of 201 to 203 °C. In the case of Cc1cc2cc(C3CCNCC3)oc2cc1C, the melting point is reported as 77 to 78 °C. With CC(=O)c1ccc(N2CCCCC2)c(S(N)(=O)=O)c1 the melting point was 130 to 132 °C. Compound O=C(Nc1ccc(C(=O)N2Cc3cccn3Cc3ccccc32)cc1)c1cccc(F)c1F has a melting point of 252 to 258 °C. For COc1ccc2c(c1)C(c1ccc(OCCN(C(C)C)C(C)C)cc1)c1c-2ccc2ccccc12 (centres undefined), the melting point was 106 to 115 °C. For C=CCOc1nc(Cl)nc2nc[nH]c12, the melting point was 208 to 209 °C. Compound O=C1CNC(c2ccc(Cl)cc2)=NN1CC(F)(F)F has a melting point of 178 to 180 °C. With Cc1cc(N(C)C(=O)OC(C)(C)C)c(C)c(C)c1O the melting point was 163 to 166 °C. Work on COc1ccc(C(=O)c2c(N)sc3c2CCC3)c2ccccc12 yielded a melting point of 214 to 215 °C. In the case of CNC(=O)NCCN1CCC(Nc2nc3ccccc3n2Cc2ccc(F)cc2)C1 (centres undefined), the melting point is reported as 161 °C. For O=C(Nc1cccc(C(F)(F)F)c1)OCC1(COC(=O)Nc2cccc(C(F)(F)F)c2)CSc2ccccc2C1=O, the melting point was 58 to 63 °C. Work on COc1cccc2c(=O)n(-c3ccc(Br)cc3)c(-c3cc(C)c(OCCO)c(C)c3)nc12 yielded a melting point of 100 to 102 °C. Compound CCOc1nnc(NCc2ccc(OC)c(Cl)c2)c2cc(Cl)ccc12 has a melting point of 111 to 115 °C. With CC(C)c1ccc(-n2c(CC(=O)O)c(C(=O)O)c3cc(Oc4cccc(Cl)c4)ccc32)cc1 the melting point was 176 to 182 °C. Work on CCOC(=O)c1ccnc(OCc2nc(-c3ccco3)oc2C)c1 yielded a melting point of 80 to 81 °C. Compound CON=C(C(=O)O)c1cccc(OC)c1 has a melting point of 97 to 98 °C. In the case of O=C1c2ccc(Nc3ccccc3)nc2CC2CCCCC12 (centres undefined), the melting point is reported as 214 to 216 °C. In the case of c1c[nH]c(-c2cnco2)c1, the melting point is reported as 57 to 58 °C. In the case of CC(=O)Oc1ccccc1C(=O)NC1CCN(CCCOc2ccccc2C#N)CC1, the melting point is reported as 80 to 82 °C. CCOC(=O)C1=C(N)N=C(OCC)C(C(=O)OCC)C1c1cc([N+](=O)[O-])ccc1Cl (centres undefined) gave a melting point of 136 to 137 °C. In the case of CCOC(=O)C(CC=Cc1ccccc1)(NC(C)=O)C(=O)OCC, the melting point is reported as 70 to 75 °C. For C=CCOc1cccc2oc(C=CC(=O)OCC)c(C)c12, the melting point was 79 to 80 °C. COc1ccc(C2C[N+]([O-])=C3CCCCC32)cc1OC (centres undefined) gave a melting point of 135 to 141 °C. O=C(O)CCCc1cc2nc(Cl)ccc2n1S(=O)(=O)c1ccc(-c2cnco2)cc1 showed a melting point of 169 to 176 °C. With CCOc1nn(-c2ccc(C(F)(F)F)cn2)cc1CCCOc1cc(CCC(=O)O)n(C)n1 the melting point was 137 to 138 °C. In the case of CS(=O)(=O)c1cc(Cl)cc(O)c1O, the melting point is reported as 142 to 145 °C. Compound CCOC(=O)c1cc(NC(=O)C(CSC(C)=O)Cc2ccc(Cl)cc2)c[nH]1 (centres undefined) has a melting point of 141 to 144 °C. With Nc1ncc(Cl)cc1O the melting point was 196 to 201 °C. Compound CC(C)(C)OOC(C)(CCC(=O)NNC(=O)c1ccccc1)OOC(C)(C)C has a melting point of 147 to 149 °C. For CC(C)[C@H](NC(=O)OCc1ccccn1)C(=O)N[C@@H](Cc1ccccc1)[C@@H](O)[C@H](O)[C@H](Cc1ccccc1)NC(=O)[C@@H](NC(=O)OCc1ccccn1)C(C)C, the melting point was 220 to 223 °C. COC(=O)c1ccc(OC)c(/C=C/C(=O)N(C(C)C)C(C)C)c1 showed a melting point of 139 to 140 °C. For CC(C)(CO)Nc1nc2c(s1)CCc1cc(C#N)ccc1-2, the melting point was 121 to 123 °C. CCCCCC(CC(=O)Nc1cc(C(N)=O)ccc1C(C)(C)C)c1ccc(C)cc1OC (centres undefined) showed a melting point of 175 to 177 °C. Work on CCOC(=O)c1cc(-c2ccc(-c3ccco3)cc2)n(-c2ccc(S(C)(=O)=O)c(F)c2)n1 yielded a melting point of 172 °C. In the case of N#CC=Cc1ccc([N+](=O)[O-])cc1, the melting point is reported as 112 °C. With N#Cc1cccnc1N1CCN(CC(=O)Nc2cccc(Cl)c2)CC1 the melting point was 108 to 109 °C. CC1(C)C2C=CC3(C)C(C2)C(=O)CCC13O[Si](C)(C)C (centres undefined) gave a melting point of 73 to 76 °C. With COc1ccc(C(CC(=O)O)N2C(=O)c3ccccc3C2=O)cc1 (centres undefined) the melting point was 160 to 164 °C. S=c1[nH]ccc2ccsc12 showed a melting point of 187 to 189 °C. With Fc1cccc(F)c1-c1cncnc1 the melting point was 67 to 69 °C. For CCN1CCCC1CNC(=O)c1ccc(Nc2ncnc3cc(C(F)(F)F)ccc23)cc1 (centres undefined), the melting point was 150 to 152 °C. Compound O=C(Nc1ccc2c(c1)CS(=O)(=O)N2)C(=O)N1CCC(Cc2ccc(F)cc2)CC1 has a melting point of 183 to 184 °C. Work on O=Cc1cc2n(n1)-c1ccc(Cl)cc1C(c1ccccc1)NC2=O (centres undefined) yielded a melting point of 276 to 278 °C. Work on CC(C)c1c(C=CC2CC(O)CC(O)O2)n(-c2ccc(Cl)cc2)c(=O)c2ccccc12 (mixture of isomers) yielded a melting point of 181 to 185 °C. In the case of Cc1ccc(Cc2cnc(NCCCCNc3ncc(Cl)cc3C)[nH]c2=O)cn1, the melting point is reported as 202 to 203 °C. In the case of COC(=O)CCN1C[C@H]2Cc3ccccc3[C@H](c3ccccc3)[C@H]2C1 (racemic), the melting point is reported as 75 to 76 °C. Work on O=C(NCCCCCCCNC(=O)c1ccc(OC2CCCC2)cc1)c1ccc(OC2CCCC2)cc1 yielded a melting point of 153 to 154 °C. OCc1cc2sccc2s1 showed a melting point of 91 to 93 °C. In the case of Cc1nc(C)c(Cl)c(CNCc2ccc(Oc3ccc4ncc([N+](=O)[O-])n4n3)cn2)n1, the melting point is reported as 183 to 184 °C. With CCC1C(C)=NN=C(c2ccc(O)c(OC)c2)c2cc(O)c(O)cc21 (centres undefined) the melting point was 252 to 253 °C. In the case of Cc1oc(-c2ccco2)nc1COc1ccc(CCl)cn1, the melting point is reported as 95 to 96 °C. Cc1cc(CC#N)cc(Cc2nc3c(F)c(F)cc(F)c3s2)c1 showed a melting point of 110 to 113 °C. COc1cc(Nc2ncc(C#N)c(-c3ccc(C(C)(C)N)cc3)n2)cc(OC)c1OC showed a melting point of 167 to 168 °C. Compound CN(CC(=O)c1ccc(N(C)C)cc1)Cc1cc2c(=O)c(C(=O)NCc3ccc(Cl)cc3)cn(C)c2s1 has a melting point of 162 °C. For CC1(C)CCC(C)(C)c2cc(CCCC(=O)O)ccc21, the melting point was 99 °C. Compound Cn1cc(C=O)c(-c2ccoc2)n1 has a melting point of 77 to 78 °C. For CCN(CC)c1ccc2ccc(=O)oc2c1, the melting point was 87.5 to 88 °C. Work on Clc1cccc2c3c([nH]c12)-c1ccccc1C3 yielded a melting point of 139 °C. CCOC(=O)c1cnc(CC)nc1NCc1ccc(-c2ccccc2-c2nnnn2C(c2ccccc2)(c2ccccc2)c2ccccc2)cc1 showed a melting point of 134 to 136 °C. Work on COc1cc(C(=O)O)c(N)cc1OCc1ccccc1 yielded a melting point of 159 to 161 °C. For CCOC(=O)C(=NOC)C(C)=NNC(C)=O, the melting point was 190 to 192 °C. With CCCCn1c(COCC)nc2c(N)nc3ccc(-c4ccccc4)cc3c21 the melting point was 186 to 187 °C. Compound COc1ccc(C(=O)Nc2ccccc2)cc1NS(=O)(=O)c1cc(Cl)sc1Cl has a melting point of 189 to 190 °C. COc1cn(-c2cccc(C(F)(F)F)c2)nc(-n2ccnc2-c2ccccc2)c1=O gave a melting point of 167 to 170 °C. For COc1cc2c(cc1OC)[C@@H]1CN(C)CC[C@@H]1N=C2c1ccc(Cl)c(Cl)c1 (relative stereo), the melting point was 183 to 184 °C. C[C@@H](NC(=O)[C@@H](NC(=O)[C@H](C/C=C/c1ccc(-c2ccccc2)c(F)c1)CC(=O)OC(C)(C)C)C(C)(C)C)c1ccccc1 showed a melting point of 165 to 168 °C. Compound CCC(Oc1ccccc1)c1nnc(NC(=O)N(C)CC(OC)OC)s1 (centres undefined) has a melting point of 84 to 85 °C. In the case of CC(=O)c1c(-c2ccncc2)[nH]c(-c2ccncc2)c1C(F)(F)F, the melting point is reported as 250 to 255 °C. CNC(=O)CC(O)(c1ccccc1)c1ccc2nc(N)n(S(=O)(=O)C(C)C)c2c1 (centres undefined) gave a melting point of 92 to 95 °C. For O=C(Nc1cccc2ncccc12)N1CCN2C(=O)OC(c3ccccc3)(c3ccccc3)C2C1 (centres undefined), the melting point was 234 to 236 °C. For COc1cccc(CNC(=O)c2cc3ccccc3c(=O)[nH]2)c1, the melting point was 206 to 210 °C. Work on CCOc1cc([C@@H]2CC=CC[C@H]2[N+](=O)[O-])ccc1OC (racemic) yielded a melting point of 66 to 67 °C. COc1ccc(C2CCN(c3c(C)c(C)c4c(c3C)C(O)C(C)(C)O4)CC2)cc1OC (centres undefined) gave a melting point of 140 to 142 °C. With CCOC(=O)C(C)Sc1ncnc2c(O)n(C)nc12 (centres undefined) the melting point was 127 to 131 °C. O=C(NCc1ccc(Cl)cc1)c1nnc2ccc(I)cc2c1O gave a melting point of 307 to 308 °C. Work on CCCCCCCCOc1ccc(C(N)=O)c(O)c1 yielded a melting point of 123 to 124 °C. CC(C)(C)NC(CCOc1cccc2c1CC(=O)N2)OC(=O)Cc1ccccc1 (centres undefined) gave a melting point of 112 to 115 °C. Cc1c(C)c(C=O)c2ncccc2c1C showed a melting point of 162 °C. Work on CC(=O)c1cc2c(cn1)[nH]c1ccccc12 yielded a melting point of 174 to 175 °C. With COc1ccc(-c2nc(S(=O)(=O)c3ccc(Cl)cc3)[nH]c2-c2ccc(OC)cc2)cc1 the melting point was 187 to 188 °C. Work on O=C(O)C1CCCc2c1c1ccccc1n2Cc1ccccc1 (centres undefined) yielded a melting point of 212 to 215 °C. Compound COc1ccc(N(CCC(=O)O)C(=O)Cl)cc1 has a melting point of 90 °C. CN(C1CCN(Cc2cccs2)CC1)S(=O)(=O)c1ccc(Nc2nccc(Nc3ccc(F)cc3)n2)cc1 showed a melting point of 175 to 176 °C. Cc1cn2ccc(N)c(Br)c2n1 showed a melting point of 158 to 160 °C. CCOC(=O)c1cc2ccc(Oc3ccc([N+](=O)[O-])cc3)cc2oc1=O gave a melting point of 163 °C. O=C(O)CCc1cc2nc(C(F)(F)F)ccc2n1S(=O)(=O)c1cccc2ccccc12 gave a melting point of 116 to 117 °C. O=[N+]([O-])c1ccc2oc(-c3ccc(Cl)cc3)nc2c1 showed a melting point of 217 to 218 °C. For O=C(O)c1cc([N+](=O)[O-])ccc1Nc1ccc(CCCc2ccc(Cl)c(Cl)c2)cc1, the melting point was 153 to 155 °C. For CCCn1nnc(-c2cnc3ccccn3c2=O)n1, the melting point was 115 to 116 °C. Clc1ccc(CNc2nc(-c3nccc4ccccc34)nc3ccccc23)cc1 showed a melting point of 221 to 224 °C. For COC(=O)CCc1ncc2oc(C(=O)OC)c(O)c2c1C(=O)OC, the melting point was 117 to 118 °C. Compound Cc1cc(N=CN(C)C)c(C)cc1Cc1cccc(C(F)(F)F)c1 has a melting point of 75 to 77 °C. Work on COc1cc(OC)c2c(=O)[nH]c(-c3cccc(N4CCN(CCS(C)(=O)=O)CC4)n3)nc2c1 yielded a melting point of 243 to 244 °C. With COc1ccc2cc(C(=O)CCC(=O)c3ccccc3)ccc2c1 the melting point was 164 °C. Work on CC(C)(C)c1ccc(CC2OCCN(Cc3ccccc3)C2=O)cc1 (centres undefined) yielded a melting point of 190 to 193 °C. O=C(O)c1cc(-c2ncc(C(F)(F)F)cc2Cl)ccc1Cl showed a melting point of 149 to 151 °C. Compound Cn1c(Cl)c(Cl)c(C(=O)c2cc(C(C)(C)C)c(O)c(C(C)(C)C)c2)c1Cl has a melting point of 155 to 156 °C. In the case of O=C(CC(=O)C(F)(F)F)Nc1cc(-c2ccsc2)n[nH]1, the melting point is reported as 251 to 253 °C. Work on Cc1cc(=O)[nH]c(SCc2ccccc2N(C)C)n1 yielded a melting point of 152 to 154 °C.
